The results in this text go back to PubChem BioAssay (NCI).

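Following 48 hours of exposure in 96-well plates, responses at five concentrations were used to interpolate endpoints linearly. TGI: concentration producing complete growth inhibition.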

Among the test systems are K-562 leukemia; UACC-257 melanoma; OVCAR-3 ovarian; A549 NSCLC; NCI-H226 lung; HS 578T breast; SF-539 CNS; UACC-62 melanoma; NCI-H23 lung; TK-10 renal; SR leukemia; A498 renal; COLO 205 colon; HCT-15 colon; SF-268 CNS; M14 melanoma; MDA-MB-231 breast; SK-MEL-5 melanoma; EKVX NSCLC; LOX IMVI melanoma.
Common to all, as to test: NCI-60 cell line screen, 48 h

As for `CC(C)(C)OC(=O)N1CC(CCl)c2ccc(O)cc21` (stereo not given), the TGI in the assay on K-562 leukemia turned out to be 14.2 µM; in the assay with UACC-257 melanoma, 5.01 µM; in the assay with OVCAR-3 ovarian, 5.83 µM; in the assay on A549 NSCLC, 11.3 µM; in the assay on NCI-H226 lung, 4.53 µM; with HS 578T breast, 7.41 µM. Also, the TGI in the assay on SF-539 CNS is 4.96 µM; in the assay with UACC-62 melanoma, 4.56 µM; in the assay on NCI-H23 lung, 2.32 µM; in the assay on TK-10 renal, 7.47 µM; in the assay with SR leukemia it was greater than 100 µM; with A498 renal, 4.82 µM. Besides, the TGI in the assay with COLO 205 colon was 4.53 µM; in the assay on HCT-15 colon, 10 µM; in the assay on SF-268 CNS, 4.26 µM; in the assay on M14 melanoma, 3.21 µM; in the assay on MDA-MB-231 breast, 11.4 µM; in the assay with SK-MEL-5 melanoma it was 2.77 µM. Moreover, the TGI with EKVX NSCLC stood at 6.73 µM; with LOX IMVI melanoma, 3.72 µM.
For `CCc1c2cc(OC)c(OC)cc2cc2c3cc(OC)c(OC)cc3cc[n+]12` (tested in a mixture with another compound), the TGI with K-562 leukemia is greater than 45.6 µM; in the assay with UACC-257 melanoma it was 59.3 µM; in the assay with OVCAR-3 ovarian, greater than 89.8 µM; with A549 NSCLC, greater than 96.6 µM; in the assay on NCI-H226 lung it was 39.2 µM; in the assay with HS 578T breast, greater than 89.1 µM. The TGI with SF-539 CNS was greater than 94.9 µM; with UACC-62 melanoma, 73.8 µM; in the assay with NCI-H23 lung, 60.5 µM; in the assay on TK-10 renal, greater than 100 µM; in the assay on SR leukemia, greater than 57.9 µM; with A498 renal, greater than 71.8 µM. Besides, the TGI in the assay with COLO 205 colon is 22.8 µM; with HCT-15 colon, greater than 61.7 µM; with SF-268 CNS, 41.3 µM; in the assay with M14 melanoma, greater than 86.6 µM; with MDA-MB-231 breast it was 48.8 µM; in the assay with SK-MEL-5 melanoma, 48.9 µM. For the same molecule, the results for the TGI in the assay with EKVX NSCLC and in the assay on LOX IMVI melanoma were greater than 88 µM and greater than 63 µM, respectively.
For the molecule `CNC(=O)N(CCC#N)CCN(C(=O)N(C)C)c1ccccc1`, the TGI with K-562 leukemia, in the assay with UACC-257 melanoma, with OVCAR-3 ovarian, in the assay on A549 NSCLC, in the assay with NCI-H226 lung and in the assay on HS 578T breast was greater than 100 µM each time. Moreover, the TGI in the assay with SF-539 CNS, in the assay with UACC-62 melanoma, in the assay on NCI-H23 lung, in the assay on TK-10 renal, in the assay on SR leukemia and with A498 renal was greater than 100 µM in each case. Besides, the TGI in the assay on COLO 205 colon, in the assay with HCT-15 colon, with SF-268 CNS, with M14 melanoma, in the assay on MDA-MB-231 breast and with SK-MEL-5 melanoma was greater than 100 µM each time. Also, the TGI in the assay with EKVX NSCLC and in the assay on LOX IMVI melanoma was greater than 100 µM each time.
With `CC(=O)c1c(SCCN2CCOCC2)n(-c2ccccc2)c(=S)n(-c2ccccc2)c1=O`, the TGI in the assay on K-562 leukemia is greater than 94.2 µM; with UACC-257 melanoma, 29.2 µM; with OVCAR-3 ovarian, 29.3 µM; with A549 NSCLC, greater than 57.6 µM; in the assay with NCI-H226 lung, greater than 73.4 µM; with HS 578T breast, greater than 100 µM. The TGI in the assay on SF-539 CNS is 43.9 µM; in the assay on UACC-62 melanoma it was 29.5 µM; with NCI-H23 lung, greater than 64.5 µM; in the assay with TK-10 renal, 31.2 µM; in the assay with SR leukemia it was greater than 100 µM; in the assay on A498 renal it was 26.1 µM. Moreover, the TGI in the assay with COLO 205 colon turned out to be 41.8 µM; in the assay with HCT-15 colon, 48.6 µM; with SF-268 CNS it was 39.7 µM; with M14 melanoma it was 30.2 µM; with MDA-MB-231 breast, 37.1 µM; in the assay on SK-MEL-5 melanoma, 34.4 µM. For the same molecule, the values for the TGI with EKVX NSCLC and in the assay on LOX IMVI melanoma were greater than 76.3 µM and 26 µM, respectively.
